From patent publication US10087212B2, “Crystal form of Abiraterone propionate and preparation method therefor” (CHONGQING PHARMACEUTICAL RESEARCH INSTITUTE CO., LTD, priority 2015, dated 2018)

Experiment: Stability test of crystal forms (40±2° C., RH 75±5%, 3 months)
Type: physicochemical
Conditions: for Crystal appearance / Melting point / Purity / Specific optical rotation: stability test
Procedure: The crystal forms obtained in Examples 2 to 4 were placed under an environment having a temperature of 40±2° C. and a humidity of RH 75±5% for 3 months. The melting point, specific optical rotation, purity and crystal appearance were measured on 0 day, 1-month, 2-month and 3-month, respectively.

[1] = 3 months, conclusion from Table 2

SMILES	Crystal transformation [1]	Stability [1]	Crystal appearance (0 month)	Melting point (0 month)	Purity (0 month)	Specific optical rotation (0 month)	Crystal appearance (1 month)	Melting point (1 month)	Purity (1 month)	Specific optical rotation (1 month)	Crystal appearance (2 months)	Melting point (2 months)	Purity (2 months)	Specific optical rotation (2 months)	Crystal appearance (3 months)	Melting point (3 months)	Purity (3 months)	Specific optical rotation (3 months)
CCC(=O)O[C@H]1CC[C@@]2(C)C(=CC[C@@H]3[C@@H]2CC[C@]2(C)C(c4cccnc4)=CC[C@@H]32)C1 [crystal form of Abiraterone propionate, (3β)-17-(3-pyridyl)-androstane-5,16-dien-3-ol propionate]	no crystal transformation occurred	good stability																
CCC(=O)O[C@H]1CC[C@@]2(C)C(=CC[C@@H]3[C@@H]2CC[C@]2(C)C(c4cccnc4)=CC[C@@H]32)C1 [Example 2, (3β)-17-(3-pyridyl)-androstane-5,16-dien-3-ol propionate]			No change	109.5~110.4 °C	99.88	−44.32°	No change	109.4~110.3 °C	99.86	−44.06°	No change	109.4~110.5 °C	99.82	−43.67°	No change	109.8~110.5 °C	99.81	−44.23°
CCC(=O)O[C@H]1CC[C@@]2(C)C(=CC[C@@H]3[C@@H]2CC[C@]2(C)C(c4cccnc4)=CC[C@@H]32)C1 [Example 4, (3β)-17-(3-pyridyl)-androstane-5,16-dien-3-ol propionate]			No change	109.6~110.5 °C	99.86	−44.46°	No change	109.4~110.4 °C	99.83	−44.13°	No change	109.5~110.7 °C	99.81	−44.08°	No change	109.7~110.6 °C	99.79	−43.92°
CCC(=O)O[C@H]1CC[C@@]2(C)C(=CC[C@@H]3[C@@H]2CC[C@]2(C)C(c4cccnc4)=CC[C@@H]32)C1 [Example 3, (3β)-17-(3-pyridyl)-androstane-5,16-dien-3-ol propionate]			No change	109.7~110.6 °C	99.89	−44.34°	No change	109.4~110.4 °C	99.87	−44.21°	No change	109.5~110.0 °C	99.84	−44.05°	No change	109.8~110.6 °C	99.82	−43.99°
